Results: US11098073B2, “Triphenylphosphonium-tethered tetracyclines for use in treating cancer” (Oxford University Innovation Limited, priority 2017, dated 2021)
Where a name gives a salt, the structure may show the parent alone.

Tested on: MDA-231 cancer cells
Test: Inhibition of proliferation assay: cell confluence (IncuCyte live cell imaging)
Assay type: cell-based
Conditions: images every 3 h over 4-5 d, relative confluence normalised to time zero
Description: Inhibition of Proliferation Assay
The confluence value is a surrogate for cell proliferation and growth. The value is expressed as a percent confluence, which represents the fraction of culture dish-surface that is occupied by cells. As the number of cells in the dish increases over time due to proliferation, so will their coverage of that surface increase. Expansion of the cell population on the cell culture-dish surface and confluence have mostly a linear relationship until the cells on the plate surface begin to reach saturation or maximum density.
Confluence is determined based on image analysis. Image based software can identify objects in the image field base on changes to pixel density in a grey scale image. The software can then assign a mask to those pixels within the object. Objects can be ‘gated’ out based on size and shape. To determine cell confluence, images of cells are first masked as objects. The surface area of the image that is masked is measured and compared to the total surface area of the culture dish surface to obtain a percent confluence.
MDA-231 cancer cells were obtained from ATCC. Cells were cultured in Dulbecco's Modified Eagle Medium (DMEM) supplemented with 10% Fetal Bovine Serum (FBS), 2 mM Glutamax, 1 mM Non Essential Amino Acid (NEAA) solution and 1 mM sodium pyruvate. […] Final DMSO concentrations were […]. Images were acquired with an IncuCyte Live Cell Imaging microscopy (Essen Bioscience) at every 3 h under cell culture conditions with 10 OX objective over 4-5 d. Cell confluence was calculated from one field of view per well using the IncuCyte in-built algorithm. Relative confluence values were obtained by normalising each value to the time zero value in each sample.

SMILES	% Confluence (compound tested at 10 μM)	% Confluence (compound tested at 50 μM)
C[C@H]1c2c(NC(=O)CCCCCCC[P+](c3ccccc3)(c3ccccc3)c3ccccc3)ccc(O)c2C(=O)C2=C(O)[C@]3(O)C(=O)C(C(N)=O)=C(O)[C@@H](N(C)C)[C@@H]3[C@@H](O)[C@@H]21 [Example 4, (7-{[(6aS,10S,10aR,11S,11aR,12R)-8-carbamoyl-10-(dimethylamino)-4,6,6a,9,11-pentahydroxy-12-methyl-5,7-dioxo-5,6a,7,10,10a,11,11a,12-octahydrotetracen-1-yl]carbamoyl}heptyl)triphenylphosphonium trifluoroacetate]	124.3%	–
C[C@H]1c2ccc(NC(=O)CCNC(=O)CCCCCCC[P+](c3ccccc3)(c3ccccc3)c3ccccc3)c(O)c2C(=O)C2=C(O)[C@]3(O)C(=O)C(C(N)=O)=C(O)[C@@H](N(C)C)[C@@H]3[C@@H](O)[C@@H]21 [Example 10, {7-[(2-{[(5R,5aR,6S,6aR,7S,10aS)-9-carbamoyl-7-(dimethylamino)-1,6,8,10a,11-pentahydroxy-5-methyl-10,12-dioxo-5,5a,6,6a,7,10,10a,12-octahydrotetracen-2-yl]carbamoyl}ethyl)carbamoyl]heptyl}triphenylphosphonium trifluoroacetate]	92.2%	–
C[C@H]1c2cccc(O)c2C(=O)C2=C(O)[C@]3(O)C(=O)C(C(N)=O)=C(O)[C@@H](N(C)C)[C@@H]3[C@@H](O)[C@@H]21 [Doxycycline, reference compound]	98.7%	91%
C[C@H]1c2ccc(CNC(=O)CCCCCCCCC[P+](c3ccccc3)(c3ccccc3)c3ccccc3)c(O)c2C(=O)C2=C(O)[C@]3(O)C(=O)C(C(N)=O)=C(O)[C@@H](N(C)C)[C@@H]3[C@@H](O)[C@@H]21 [Example 5, trifluoroacetate]	37%	–
C[C@H]1c2ccc(NC(=O)CCCCCCCCCCC[P+](c3ccccc3)(c3ccccc3)c3ccccc3)c(O)c2C(=O)C2=C(O)[C@]3(O)C(=O)C(C(N)=O)=C(O)[C@@H](N(C)C)[C@@H]3[C@@H](O)[C@@H]21 [Example 1, (11-{[(5R,5aR,6S,6aR,7S,10aS)-9-carbamoyl-7-(dimethylamino)-1,6,8,10a,11-pentahydroxy-5-methyl-10,12-dioxo-5,5a,6,6a,7,10,10a,12-octahydrotetracen-2-yl]carbamoyl}undecyl)triphenylphosphonium formate]	27.1%	–
C[C@H]1c2ccc(NC(=O)CNC(=O)CCCCC[P+](c3ccccc3)(c3ccccc3)c3ccccc3)c(O)c2C(=O)C2=C(O)[C@]3(O)C(=O)C(C(N)=O)=C(O)[C@@H](N(C)C)[C@@H]3[C@@H](O)[C@@H]21 [Example 8, {5-[({[(5R,5aR,6S,6aR,7S,10aS)-9-carbamoyl-7-(dimethylamino)-1,6,8,10a,11-pentahydroxy-5-methyl-10,12-dioxo-5,5a,6,6a,7,10,10a,12-octahydrotetracen-2-yl]carbamoyl}methyl)carbamoyl]pentyl}triphenylphosphonium trifluoroacetate]	96.2%	–
C[C@H]1c2c(NC(=O)CCNC(=O)CCCCCCC[P+](c3ccccc3)(c3ccccc3)c3ccccc3)ccc(O)c2C(=O)C2=C(O)[C@]3(O)C(=O)C(C(N)=O)=C(O)[C@@H](N(C)C)[C@@H]3[C@@H](O)[C@@H]21 [Example 15, {7-[(2-{[(6aS,10S,10aR,11S,11aR,12R)-8-carbamoyl-10-(dimethylamino)-4,6,6a,9,11-pentahydroxy-12-methyl-5,7-dioxo-5,6a,7,10,10a,11,11a,12-octahydrotetracen-1-yl]carbamoyl}ethyl)carbamoyl}heptyl}triphenylphosphonium trifluoroacetate]	112.8%	–
C[C@H]1c2ccc(NC(=O)CCCCCC[P+](c3ccccc3)(c3ccccc3)c3ccccc3)c(O)c2C(=O)C2=C(O)[C@]3(O)C(=O)C(C(N)=O)=C(O)[C@@H](N(C)C)[C@@H]3[C@@H](O)[C@@H]21.[Cl-] [Example 19]	22.4%	–
C[C@H]1c2ccc(NC(=O)CCCCCCCC[P+](c3ccccc3)(c3ccccc3)c3ccccc3)c(O)c2C(=O)C2=C(O)[C@]3(O)C(=O)C(C(N)=O)=C(O)[C@@H](N(C)C)[C@@H]3[C@@H](O)[C@@H]21.[Cl-] [Example 20]	25.2%	–
C[C@H]1c2ccc(NC(=O)CCCCCCCCC[P+](c3ccccc3)(c3ccccc3)c3ccccc3)c(O)c2C(=O)C2=C(O)[C@]3(O)C(=O)C(C(N)=O)=C(O)[C@@H](N(C)C)[C@@H]3[C@@H](O)[C@@H]21 [Example 7, (9-{[(5R,5aR,6S,6aR,7S,10aS)-9-carbamoyl-7-(dimethylamino)-1,6,8,10a,11-pentahydroxy-5-methyl-10,12-dioxo-5,5a,6,6a,7,10,10a,12-octahydrotetracen-2-yl]carbamoyl}nonyl)triphenylphosphonium trifluoroacetate]	38.7%	–
C[C@H]1c2ccc(NC(=O)CNC(=O)CCCCCCC[PH](c3ccccc3)(c3ccccc3)c3ccccc3)c(O)c2C(=O)C2=C(O)[C@]3(O)C(=O)C(C(N)=O)=C(O)[C@@H](N(C)C)[C@@H]3[C@@H](O)[C@@H]21 [Example 3, {7-[({[(5R,5aR,6S,6aR,7S,10aS)-9-carbamoyl-7-(dimethylamino)-1,6,8,10a,11-pentahydroxy-5-methyl-10,12-dioxo-5,5a,6,6a,7,10,10a,12-octahydrotetracen-2-yl]carbamoyl}methyl)carbamoyl]heptyl}triphenylphosphonium trifluoroacetate]	99.9%	–
C[C@H]1c2ccc(NC(=O)CCNC(=O)CCCCCCCCC[P+](c3ccccc3)(c3ccccc3)c3ccccc3)c(O)c2C(=O)C2=C(O)[C@]3(O)C(=O)C(C(N)=O)=C(O)[C@@H](N(C)C)[C@@H]3[C@@H](O)[C@@H]21 [Example 11, {9-[(2-{[(5R,5aR,6S,6aR,7S,10aS)-9-carbamoyl-7-(dimethylamino)-1,6,8,10a,11-pentahydroxy-5-methyl-10,12-dioxo-5,5a,6,6a,7,10,10a,12-octahydrotetracen-2-yl]carbamoyl}ethyl)carbamoyl]nonyl}triphenylphosphonium trifluoroacetate]	45%	–
C[C@H]1c2ccc(CNC(=O)CCCCCCC[P+](c3ccccc3)(c3ccccc3)c3ccccc3)c(O)c2C(=O)C2=C(O)[C@]3(O)C(=O)C(C(N)=O)=C(O)[C@@H](N(C)C)[C@@H]3[C@@H](O)[C@@H]21 [Example 17, trifluoroacetate]	79.4%	–
C[C@H]1c2ccc(NC(=O)CCCCCCCCCC[P+](c3ccccc3)(c3ccccc3)c3ccccc3)c(O)c2C(=O)C2=C(O)[C@]3(O)C(=O)C(C(N)=O)=C(O)[C@@H](N(C)C)[C@@H]3[C@@H](O)[C@@H]21 [Example 6, (10-{[(5R,5aR,6S,6aR,7S,10aS)-9-carbamoyl-7-(dimethylamino)-1,6,8,10a,11-pentahydroxy-5-methyl-10,12-dioxo-5,5a,6,6a,7,10,10a,12-octahydrotetracen-2-yl]carbamoyl}decyl)triphenylphosphonium trifluoroacetate]	36.8%	–
C[C@H]1c2c(NC(=O)CCCCCCCCCCC[P+](c3ccccc3)(c3ccccc3)c3ccccc3)ccc(O)c2C(=O)C2=C(O)[C@]3(O)C(=O)C(C(N)=O)=C(O)[C@@H](N(C)C)[C@@H]3[C@@H](O)[C@@H]21 [Example 13, (11-{[(6aS,10S,10aR,11 S,11 aR,12R)-8-carbamoyl-10-(dimethylamino)-4,6,6a,9,11-pentahydroxy-12-methyl-5,7-dioxo-5,6a,7,10,10a,11,11a,12-octahydrotetracen-1-yl]carbamoyl}undecyl)triphenylphosphonium trifluoroacetate]	53.7%	–
C[C@H]1c2c(NC(=O)CCCCCCCCC[P+](c3ccccc3)(c3ccccc3)c3ccccc3)ccc(O)c2C(=O)C2=C(O)[C@]3(O)C(=O)C(C(N)=O)=C(O)[C@@H](N(C)C)[C@@H]3[C@@H](O)[C@@H]21 [Example 14, (9-{[(6aS,10S,10aR,11 S,11 aR,12R)-8-carbamoyl-10-(dimethylamino)-4,6,6a,9,11-pentahydroxy-12-methyl-5,7-dioxo-5,6a,7,10,10a,11,11a,12-octahydrotetracen-1-yl]carbamoyl}nonyl)triphenylphosphonium trifluoroacetate]	87.9%	–
C[C@H]1c2ccc(NC(=O)CCNC(=O)CCCC[P+](c3ccccc3)(c3ccccc3)c3ccccc3)c(O)c2C(=O)C2=C(O)[C@]3(O)C(=O)C(C(N)=O)=C(O)[C@@H](N(C)C)[C@@H]3[C@@H](O)[C@@H]21 [Example 12, {4-[(2-{[(5R,5aR,6S,6aR,7S,10aS)-9-carbamoyl-7-(dimethylamino)-1,6,8,10a,11-pentahydroxy-5-methyl-10,12-dioxo-5,5a,6,6a,7,10,10a,12-octahydrotetracen-2-yl]carbamoyl}ethyl)carbamoyl]butyl}triphenylphosphonium trifluoroacetate]	91.9%	–
C[C@H]1c2ccc(CNC(=O)CCCCC[P+](c3ccccc3)(c3ccccc3)c3ccccc3)c(O)c2C(=O)C2=C(O)[C@]3(O)C(=O)C(C(N)=O)=C(O)[C@@H](N(C)C)[C@@H]3[C@@H](O)[C@@H]21 [Example 16, trifluoroacetate]	116.3%	–
